Test [1] has as its target T1, Ectonucleotide pyrophosphatase/phosphodiesterase family member 3 (Homo sapiens, UniProt O14638).
T1 sequence (O14638 whole entry): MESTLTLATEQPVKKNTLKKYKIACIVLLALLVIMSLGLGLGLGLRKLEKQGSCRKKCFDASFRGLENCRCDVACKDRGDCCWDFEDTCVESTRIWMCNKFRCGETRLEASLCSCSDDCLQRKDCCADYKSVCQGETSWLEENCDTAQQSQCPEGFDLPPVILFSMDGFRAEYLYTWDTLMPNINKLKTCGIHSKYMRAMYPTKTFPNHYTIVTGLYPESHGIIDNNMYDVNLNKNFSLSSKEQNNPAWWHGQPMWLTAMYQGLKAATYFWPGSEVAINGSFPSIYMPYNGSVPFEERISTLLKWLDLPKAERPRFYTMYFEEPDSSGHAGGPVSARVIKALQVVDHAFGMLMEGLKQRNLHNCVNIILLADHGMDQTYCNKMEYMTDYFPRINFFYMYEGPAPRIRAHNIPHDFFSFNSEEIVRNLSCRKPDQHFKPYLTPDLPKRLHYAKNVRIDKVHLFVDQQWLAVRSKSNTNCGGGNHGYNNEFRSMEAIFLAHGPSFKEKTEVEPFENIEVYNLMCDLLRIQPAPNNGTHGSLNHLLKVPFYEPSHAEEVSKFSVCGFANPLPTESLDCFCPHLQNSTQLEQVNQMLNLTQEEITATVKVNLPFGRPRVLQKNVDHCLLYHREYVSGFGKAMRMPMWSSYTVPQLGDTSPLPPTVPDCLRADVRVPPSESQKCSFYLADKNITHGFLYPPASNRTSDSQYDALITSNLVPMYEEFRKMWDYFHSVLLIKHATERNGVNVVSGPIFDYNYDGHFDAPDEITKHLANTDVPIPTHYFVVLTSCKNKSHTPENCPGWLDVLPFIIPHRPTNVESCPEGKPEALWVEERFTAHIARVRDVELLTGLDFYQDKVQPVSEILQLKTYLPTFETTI
As to the kind of experiment: Inhibition of recombinant human ENPP3 using p-Nph-5'-TMP as substrate by absorbance based analysis.

In another test the target is Autotaxin (Mus musculus, UniProt Q9R1E6). The test is described as follows: Inhibition of N-terminal recombinant mouse ENPP2 […] extracted from HEK293F cells using p-Nph-5'-TMP as substrate by absorbance based analysis. The class given is cell-free.

Some results are limits rather than exact numbers.

On to `COc1ccc2c(-c3ccc(CNS(N)(=O)=O)cc3)ccnc2c1`, for which the 50% inhibitory concentration (IC50) was 1270 nM in test [1] and > 10000 nM on Autotaxin.

Turning to `COc1cccc(F)c1-c1nc(C(=O)Nc2cc(F)ccc2N2CCC(NS(N)(=O)=O)CC2)cn2ccnc12`, the IC50 in test [1] was 2520 nM; on Autotaxin, > 10000 nM.

What is called IC50 is the point on the concentration scale where inhibition reaches its midpoint.

These data come from ChEMBL document CHEMBL5614463, “Discovery of Imidazo[1,2-a]pyrazine Derivatives as Potent ENPP1 Inhibitors” (J Med Chem, 2024).
